Test system: Human glioma U87-luc cells
Experiment: In vivo efficacy in U87 orthotopic xenograft model (bioluminescence imaging)
Set-up: species or system BALB/c nude mice
Settings: for Bioluminescence Signal (photons/sec), Mean: 30 mg/kg, PO, QD, U87-luc orthotopic
Method: V. In Vivo Efficacy of Compounds of the Present Disclosure in U87 Orthotopic Xenograft Models
Cell Culture: Human glioma U87-luc cells (Caliper-124577) were cultured as monolayers in vitro. The cells were maintained in EMEM supplemented with 10% fetal bovine serum (FBS), 100 U/mL penicillin, and 100 µg/mL streptomycin in an incubator at 37°C with 5% CO2. Routine subculturing was performed twice weekly using trypsin-EDTA. When the cells reached 80-90% confluence and the required cell number was achieved, the cells were harvested, counted, and prepared for inoculation.
Animals: Female BALB/c nude mice, weighing 18-20 g. A total of 50 mice were obtained (target study size of 24 mice, with an […]). The animals were provided by Beijing Vital River Laboratory Animal Technology Co., Ltd.
Tumor Inoculation: Prior to cell inoculation, each nude mouse was anesthetized via intraperitoneal injection of 1.25% avertin at a dose of 20 µL/g. The anesthetized mouse was fixed onto a stereotaxic instrument. The scalp was disinfected with 70% ethanol and covered with a sterile drape. A midline longitudinal incision (approximately 1 cm) was made to expose the skull. A small hole was drilled using a cranial drill at the coordinates 2 mm right and 0.5 mm anterior to the bregma. Using a microsyringe, 3 µL of U87-luc cell suspension (3.0×10^5 cells in PBS containing 20% Matrigel) was injected into the hole at a depth of 3.5 mm from the skull surface. The burr hole was sealed with tissue adhesive (or bone wax), the incision was sutured, and the skin was disinfected with povidone-iodine solution. The animals were kept warm on a heating pad during the recovery period and monitored until fully awake before being returned to their cages.
Analgesia: For analgesia, Meloxicam (3 mg/kg) was injected subcutaneously 30 minutes prior to surgery and 24 hours post-surgery.
Bioluminescence Imaging: Mice were weighed and administered D-luciferin (150 mg/kg) via intraperitoneal injection. Ten minutes post-injection, the mice were anesthetized using a mixture of oxygen and isoflurane. Once fully anesthetized, the animals were transferred to the IVIS Lumina III in vivo imaging system for detection. Bioluminescence measurements were acquired for all mice at 13 minutes post-injection. Whole-body bioluminescence, including metastatic tumors, was measured and images were captured. Imaging was performed on Day 7 post-inoculation and weekly thereafter following grouping and dosing (5 time points in total). The data are presented as bioluminescence signal values.
Animal Grouping: Seven days after cell inoculation, 24 mice were selected from the total of 50 mice based on their bioluminescence values. Using an Excel-based stratified randomization procedure, the mice were divided into 3 groups (8 mice per group): the Vehicle group, the 15 mg/kg BID group, and the 30 mg/kg QD group.
Experimental Endpoint: The experimental endpoint is animal survival.
Monitoring and Data Analysis: Animals were monitored daily, and the time of death was recorded. […] If an animal's health deteriorated or it became moribund (characterized by significant weight loss >20%, inability to eat or drink normally, difficulty moving, or paralysis), it was considered a mortality event and immediately euthanized via CO2 inhalation.
The Median Survival Time (MST, days) was calculated for each group. The Increase in Life-Span (ILS) was calculated by comparing the MST of the treatment group to that of the model control group, expressed as a percentage increase over the control group. The calculation is as follows: ILS(%) = (MSTt−MSTv)/MSTv × 100 [formula] Where: • MSTt: Median Survival Time of the treatment group • MSTv: Median Survival Time of the Vehicle group
Tumor Growth Monitoring: Bioluminescence signal intensity was used to monitor intracranial tumor growth. Bioluminescence imaging was performed once or twice weekly. […]

## CN(C(=O)c1ccc2nc(N)c3cncn3c2c1)[C@@H]1COc2cc(C(F)(F)F)ccc21 [Example 107, (S)-4-amino-N-methy 1-N-(6-(trifluoromethy 1)-2,3-dihydrobenzofuran-3-yl)imidazo[1,5-a]quinoxaline-8-carboxamide]
30 mg/kg once daily (QD) for 28 days, U87MG orthotopic mouse xenograft
  Tumor Growth Inhibition (TGI) rate: exceeding 100%
Day 0
  Bioluminescence Signal (photons/sec), Mean: 5.837E+06 photons/sec
Day 7
  Bioluminescence Signal (photons/sec), Mean: 1.419E+06 photons/sec
Day 14
  Bioluminescence Signal (photons/sec), Mean: 1.930E+06 photons/sec
Day 21
  Bioluminescence Signal (photons/sec), Mean: 1.968E+06 photons/sec
Day 28
  Bioluminescence Signal (photons/sec), Mean: 2.412E+06 photons/sec

From patent publication EP4775208A1, “USE OF PRMT5 INHIBITOR IN TREATMENT OF TUMORS OR CANCERS” (Apeiron Therapeutics (Hong Kong) Ltd., priority 2023, dated 2025)
